Measurements reported in patent publication US20030109567A1, “Novel angiogenesis inhibitor” (RIKEN, priority 2001, published 2003).

Assay: Solubility (physicochemical properties)
Method: The syrup was dissolved in chloroform 10 ml and applied to a silica gel column charged with chloroform (4 cm diameter, 60 cm length). Initially, elution was performed with chloroform 500 ml, then with each 500 ml of a chloroform/methanol solution having a successively changed mixing ratio (100:0, 100:2, 50:1, 20:1, 10:1, 5:1, 1:1). The compound of the present invention, RKB-3134A, was eluted in a fraction with the chloroform/methanol solution (50:1). The fraction was concentrated under reduced pressure to give a brown syrup 1.4 g. Then, the brown syrup 1.4 g was dissolved in a methanol/acetonitrile solution (1:1, 14 ml) and made into aliquots, and purified by high performance liquid chromatography (acetonitrile : water=2:8→acetonitrile : water=1:1; linear gradient (30 minutes), flow rate 9.0 ml/min) using a reverse phase ODS column (2 cm diameter, 25 cm length, PEGASIL ODS, Senshu Kagaku Co.) to give RKB-3134A. Recrystallization was further carried out from a mixed solvent of hexane/ethyl acetate/methanol to give a pure RKB-3134A (90 mg) as pale yellow powder. Physicochemical properties of RKB-3134A are shown below.
Insoluble in n-hexane or water.

Solubility in methanol, acetone, or dimethyl sulfoxide (solvent: methanol, acetone, or dimethyl sulfoxide): easily soluble
Solubility in n-hexane or water (solvent: n-hexane or water): Insoluble
SMILES: CC/C=C/C=C/C1=C(C)C(=O)C2(O1)C(=O)NC(O)(Cc1ccccc1)C2O (centres unmarked) [RKB-3134A]
